Patent publication US5198451A, “Heterocyclic carboxylic acids” (Novo Nordisk A/S, priority 1989, dated 1993)
Counter-ions that a name gives are not always drawn.

Test system: GABA uptake
Assay: not given
Details: Yunger, L. M. et al., J. Pharm. Exp. Therap. 228 (1984) 109; cited from earlier work
In the case of `O=C(O)CC1CCN(CCC=C(c2ccccc2)c2ccccc2)C1` (stereo not drawn) [SK&F 100561, N-(4,4-diphenyl-3-buten-1-yl)homo-β-proline], the “inhibition of GABA uptake, oral activity” value is listed as “orally active inhibitors of GABA uptake”.
In the case of `O=C(O)C1=CCCN(CCC=C(c2ccccc2)c2ccccc2)C1` [SK&F 100330A, N-(4,4-diphenyl-3-buten-1-yl)guvacine], the “inhibition of GABA uptake, oral activity” value is listed as “orally active inhibitors of GABA uptake”.
For `O=C(O)C1CCCN(CCC=C(c2ccccc2)c2cccs2)C1` (stereo not drawn) [SK&F 100604J, N-(4-phenyl-4-(2-thienyl)-3-buten-1-yl)nipecotic acid], the “inhibition of GABA uptake, oral activity” value is given as “orally active inhibitors of GABA uptake”.
For `O=C(O)C1CCCN(CCC=C(c2ccccc2)c2ccccc2)C1` (stereo not drawn) [SK&F 89976A, N-(4,4-diphenyl-3-buten-1-yl)nipecotic acid], the “inhibition of GABA uptake, oral activity” value is listed as “orally active inhibitors of GABA uptake”.

Same assay, conditions: background art; cited from earlier work
For `O=C(O)C1CCCNC1` (stereo not drawn) [nipecotic acid, piperidine-3-carboxylic acid], the “inhibitor of GABA uptake from the synaptic cleft into presynaptic nerve terminals and glial cells” value is given as “well-known and potent inhibitor of GABA uptake”.

Test system: [^3 H]-GABA uptake
Assay: Inhibition of [^3 H]-GABA uptake in vitro (Male Wistar rat cortical tissue homogenate)
Format: biochemical
Details: tris HCl buffer pH 7.5, 60 min at 30° C.
Protocol: Values for in vitro inhibition of [^3 H]-GABA uptake for these compounds were assessed essentially by the method of Fjalland (Acta Pharmacol.Toxicol. 42 (1978) 73-76). Male Wistar rat cortical tissue was gently homogenized by hand using a glass/PTFE homogenizer in 10 volumes of 0.32 M sucrose. Incubation was performed in a 40 mM tris HCl buffer (pH 7.5 at 30° C.) containing […], […], 4 mM MgSO4, 2.3 mM CaCl2 and 10 mM glucose, for 60 min. at 30° C.) Values for inhibition of GABA uptake for some representative compounds are recorded in Table I.
`O=C(O)[C@@H]1CCCN(CCCCCCN(c2ccccc2)c2ccccc2)C1` [Example 4, (R)-N-(6-(Diphenylamino)-1-hexyl)-3-piperidinecarboxylic acid hydrochloride] gave an IC50 of 670 nM.
`O=C(O)[C@@H]1CCCN(CCOCCC(c2ccccc2)c2ccccc2)C1` [Example 14, (R)-N-(2-(3,3-Diphenyl-1-propyloxy)ethyl)-3-piperidinecarboxylic acid hydrochloride] showed an IC50 of 51 nM.
For `O=C(O)[C@@H]1CCCN(CCOCCN(c2ccccc2)c2ccccc2)C1` [Example 2, (R)-N-(2-(2-(Diphenylamino)ethoxy)ethyl)-3-piperidinecarboxylic acid hydrochloride], the IC50 was 108 nM.
Work on `O=C(O)C1=CCCN(CCOCCC(c2ccccc2)c2ccccc2)C1` [Example 16, N-(2-(3,3-Diphenyl-1-propyloxy)ethyl)-1,2,5,6-tetrahydro-3-pyridinecarboxylic acid hydrochloride] yielded an IC50 of 49 nM.
In the case of `O=C(O)[C@@H]1CCCN(CCOCCC(c2ccccc2)c2cccc(C(F)(F)F)c2)C1` (stereo partly drawn) [Example 18, (R)-N-(2-(3-Phenyl-3-(3-(trifluoromethyl)phenyl)-1-propyloxy)ethyl)-3-piperidinecarboxylic acid hydrochloride], the IC50 is reported as 43 nM.
Molecule `O=C(O)[C@@H]1CCCN(CCCCCCCN(c2ccccc2)c2ccccc2)C1` [Example 8, (R)-N-(7-(Diphenylamino)-1-heptyl)-3-piperidinecarboxylic acid hydrochloride] has an IC50 of 222 nM.

Test system: not given
Assay: not given
Details: background art; cited from earlier work
In the case of `O=C(O)C1CCCNC1` (stereo not drawn) [nipecotic acid, piperidine-3-carboxylic acid], the “ability to cross the blood-brain barrier” value is given as “unable to cross the blood-brain barrier”.
